Laboratory results taken from US12239645B2, “Targeted dosing for the treatment of complement mediated disorders” (Achillion Pharmaceuticals, Inc., priority 2018, dated 2025).
Values after ≈ are worked out from the molar mass of the structure shown.

Experiments:
[1] = Compound 2 administered to humans (diurnal metabolic pattern); format: in vivo, human
Text: This could not have been predicted prior to human administration of the drug.

[2] = test system: complement alternative pathway (AP) activity; assay: MAD study: ex vivo serum AP hemolysis activity and PK-PD analysis; format: in vivo, human; conditions: Homo sapiens; sigmoidal model, multiple ascending dose, ex-vivo AP hemolysis, FIG. 12; read-out: modeled IC90 drug plasma concentration (90% inhibition level)
Procedure: Ex vivo serum AP hemolysis assays were conducted in 96-well microtiter plates divided into two parts, one for hemolysis and the other for serum background color subtraction. Briefly, a suspension of rabbit red blood cells (RBCs) was centrifuged at 800×g at 4° C. for 3 minutes and the supernatant was removed to get rid of the RBC debris. The RBC cell pellet was re-suspended gently with pre-chilled gelatin veronal buffer (GVB0) containing 10 mM MgEGTA to a density of 5×10^8 cells/mL. Other controls including buffer, spontaneous rabbit RBC lysis, 100% RBC lysis (in water), and normal serum control were set up alongside the test samples as well. Serum was placed in a 37° C. water-bath until mostly thawed and immediately transferred to ice bath. 20% serum was prepared with GVB0-MgEGTA buffer and kept at ice bath before testing. Reactions were carried out in a 96 well plate by mixing 50 μl of 20% serum with equal volume of GVB0-MgEGTA buffer and then quickly adding 20 μl of RBC suspension. The plate was shaken on a microtiter plate shaker for 5 seconds and then incubated at 37° C. for 30 minutes. Halfway during the incubation period, the plate was shaken for another 5 seconds as described above. At the end of the incubation, the plate was centrifuged at 800×g at 4° C. for 3 minutes to pellet the un-lysed rabbit RBCs. 80 μl of supernatant was removed carefully from all wells and transferred to a clear flat-bottom microtiter plate for the measurement of optical absorbance at 405 nm (A405) in a Molecular Devices Spectramax Plus plate reader. AP hemolysis in each well was calculated relative to the activity of the NHS reference sample formulas as follows: Hemolysis (%)=((Hm−Bk)−(Sp−Bf))/((NH−BkNH)−(Sp−Bf))×100%
where Hm=A405 in the hemolysis well, Bk=A405 in the corresponding background well, Sp=mean A405 in the spontaneous hemolysis wells, Bf=mean A405 in the buffer alone wells, NH=mean A405 in the reference NHS wells, and BkNH=mean A405 in the corresponding background wells.
The PK-PD relationship was evaluated using time-matched plasma Compound 1 concentrations and serum AP inhibition values by non-linear regression with GraphPad Prism (La Jolla, CA) using the following two models: • 1. The simple Emax model to determine the 50% effective concentration (EC50): Y=E0+Emax×X/(EC50+X) where X=plasma Compound 1 concentration, Y=percent inhibition in the corresponding serum sample, E0=0% inhibition (pre-dose AP activity), and Emax=100% inhibition. • 2. The four-parameter sigmoidal model to determine EC50 and the 90% effective concentration (EC90): Y=E0+(Emax−E0)/(1+10^((Log EC50−X)×HillSlope)) where X, Y, E0, and Emax are defined as above (Emax model) and HillSlope=the slope factor or Hill slope. Pharmacodynamic and Pharmacokinetic Results AP Activity Measured with AP Hemolysis
A multiple ascending dose (MAD) study of Compound 1 with two additional single-dose cohorts was also completed. […] Secondary objectives included evaluation of the pharmacokinetic (PK) profile and the relationship between Compound 1 PK and pharmacodynamic (PD) characteristics, that is, the inhibition of complement alternative pathway (AP) activity (PK/PD). In the MAD study, multiple-dose pharmacokinetics and pharmacodynamics of Compound 1 were evaluated in four dose groups administered Compound 1 (40, 80, 120 and 200 mg BID) in the fasted state for 14-days (Table 3). Eight subjects received active drug in each group; eight subjects received placebo in the first dose group (40 mg) and two subjects received placebo in each of the other three dose groups. Two additional cohorts were administered Compound 1 at single doses of 240 mg (fasted subjects) and 120 mg (fed subjects) (Table 3). The two single-dose cohorts each comprised six subjects receiving active drug and two subjects receiving placebo. […]

In the case of `CC(=O)c1nn(CC(=O)N2C[C@H](F)C[C@H]2C(=O)Nc2cccc(Br)n2)c2ccc(-c3cnc(C)nc3)cc12` [Compound 2, (2S,4R)-1-(2-(3-acetyl-5-(2-methylpyrimidin-5-yl)-1H-indazol-1-yl)acetyl)-N-(6-bromopyridin-2-yl)-4-fluoropyrrolidine-2-carboxamide], the diurnal metabolic pattern [1] is reported as “does not exhibit a diurnal metabolic pattern”.
`CC(=O)c1nn(CC(=O)N2C[C@H](F)C[C@H]2C(=O)Nc2cccc(Br)n2)c2ccc(-c3cnc(C)nc3)cc12` [Danicopan, reference compound] gave an IC90 [2] of 0.235 µg/mL (≈ 0.405 µM).
